Source: US20230227466A1, “SUBSTITUTED THIENOPYRIMIDINES THAT INTERACT WITH THE RAS SUPERFAMILY FOR THE TREATMENT OF CANCERS, INFLAMMATORY DISEASES, RASOPATHIES, AND FIBROTIC DISEASE” (SHY Therapeutics, LLC, priority 2020, published 2023)

Columns and labels:
Assay in all cases: Cell proliferation assay (CellTiter 96 Aqueous One)
Type in all cases: cell-based
[1] = tested on: SW-620 colorectal cancer cell line (KRAS G12V); details: Homo sapiens; SW-620, 2-4 days, 10% FBS
How it was run: (§1)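 Percent inhibition of proliferation is derived from MTS absorbance data. Cells seeded at 2000–5000 per well were grown overnight before treatment. Compounds, at 10 μM final or in dilution series, stayed on cells for 2–4 days in medium containing 10% FBS and 0.3% DMSO.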

[2] = tested on: A-549 NSCLC cell line (KRAS G12S); details: Homo sapiens; A549, 2-4 days, 10% FBS
How it was run: as §1

[3] = tested on: PANC-1 pancreatic cancer cell line (KRAS G12D); details: Homo sapiens; PANC-1, 2-4 days, 10% FBS
How it was run: as §1

IC50 [1] [µM] | IC50 [2] [µM] | IC50 [3] [µM] | Compound
0.75 to 1 | 0.75 to 1 | 0.75 to 1 | COCC1CCN(c2nc(-c3nccn3C)nc3sc(-c4ccn(C(C)C)n4)c(C)c23)C1 (racemic) [Compound 38, rac-6-(1-Isopropyl-1H-pyrazol-3-yl)-4-(3-(methoxymethyl)pyrrolidin-1-yl)-5-methyl-2-(1-methyl-1H-imidazol-2-yl)thieno[2,3-d]pyrimidine]
< 0.4 | 0.4 to 0.75 | 0.4 to 0.75 | COC[C@@H]1CC[C@@H]1CNc1nc(-c2nccn2C)nc2sc(-c3ccn(C(C)C)n3)c(C)c12 (racemic) [Compound 63, rac-6-(1-Isopropyl-1H-pyrazol-3-y)-N-(((1S,2R)-2-(methoxymethyl)cyclobutyl)methyl)-5-methyl-2-(1-methyl-1H-imidazol-2-yl)thieno[2,3-d]pyrimidin-4-amine]
0.4 to 0.75 | 0.4 to 0.75 | < 0.4 | CO[C@@H]1CC[C@H](Nc2nc(-c3nccn3C)nc3sc(-c4ccn(C(C)C)n4)c(-c4ccccc4)c23)C1 [Example 4, 6-(1-isopropyl-1H-pyrazol-3-yl)-N-((1S,3R)-3-methoxycyclopentyl)-2-(1-methyl-1H-imidazol-2-yl)-5-phenylthieno[2,3-d]pyrimidin-4-amine]
